According to PubChem BioAssay AID2040 (NMMLSC, 2009):
The source made the active and inactive calls. How the calls were made is not given here.

Molecular target: Ras-related C3 botulinum toxin substrate 1 (Homo sapiens) (UniProt P63000)
Assay: analog inhibition of wildtype Rac1 nucleotide loading – biochemical, additional analogs, multiplex bead flow cytometry, SAR follow-up (AID 2040)
Settings: Rac1 GTP binding; for Ki: measured here: Ki derived from EC50

| Compound | Ki [µM] | EC50 |
| --- | --- | --- |
| COc1cc(-c2c(C#N)c(N)n(S(=O)(=O)c3c(C(C)C)cc(C(C)C)cc3C(C)C)c2C(=O)c2ccccc2)cc(OC)c1OC | 7.04 |  |
| O=C1Nc2cccc(Br)c2/C1=C1/Cc2ccccc2C1=O | 1.13 |  |
| O=C1C(c2c(O)[nH]c3c(Cl)cccc23)=Nc2ccccc21 |  | > 30 µM (inactive) |
| O=C1N=c2ccccc2=C1c1[nH]c(=O)[nH]c1O | 0.25 | inactive |
| O=C1C(c2c(O)[nH]c3c(F)cccc23)=Nc2ccccc21 | 3.23 | inactive |
| O=C1N=c2ccccc2=C1c1[nH]c(=S)[nH]c1O | 0.16 | inactive |
| COc1ccc(S(=O)(=O)n2c(N)c(C#N)c(-c3cncc(Br)c3)c2C(=O)c2ccccc2)cc1 | 0.92 |  |
| O=C1C(c2c(O)[nH]c3ccccc23)=Nc2ccccc21 |  | > 30 µM (inactive) |
| O=C1C(c2c(O)[nH]c3c(Br)cccc23)=Nc2ccccc21 |  | > 30 µM (inactive) |
| O=Nc1c(-c2c(O)[nH]c3c(F)cccc23)[nH]c2ccccc12 |  | > 30 µM (inactive) |
| O=C1C(c2c(O)[nH]c3ccc(Br)cc23)=Nc2ccccc21 | 1.51 | inactive |
| CSc1ccc(/C=C2/C(C)=C(CC(=O)O)c3cc(F)ccc32)cc1 | 5.11 |  |
| O=Nc1c(-c2c(O)[nH]c3ccc(Br)cc23)[nH]c2ccccc12 |  | > 30 µM (inactive) |
| O=Nc1c(-c2c(O)[nH]c3ccccc23)[nH]c2ccccc12 |  | > 30 µM (inactive) |
| O=Nc1c(-c2c(O)[nH]c3c(Br)cccc23)[nH]c2ccccc12 |  | > 30 µM (inactive) |
| O=Nc1c(-c2c(O)[nH]c3c(Cl)cccc23)[nH]c2ccccc12 |  | > 30 µM (inactive) |
